Measured values: patent US8580288B2, “Agricultural or horticultural fungicide composition and its use for controlling plant pathogens” (Ishihara Sangyo Kaisha, Ltd, priority 2009, dated 2013)
Where two headings read alike, the source gives them in different places.

What was measured:
[1] = system: Pythium aristosporum; assay: Inhibition test of mycelial growth against Pythium aristosporum; type: cell-based; conditions: 48 h, PSA, 2 days, 20° C., read-out: Inhibition Rate of Mycelial Growth against Pythium aristosporum
Protocol: (§1) Pythium aristosporum was precultured. And the obtained hyphae (4 mm in diameter) was transplanted on potato sucrose agar medium (PSA) including an agent at a predetermined concentration, and then cultured for two days at room temperature of 20° C., followed by measuring a diameter of the mycelial colony to obtain an inhibition rate of mycelial growth. In addition, a theoretical value of the inhibition rate was calculated using Colby's formula and listed in parentheses of Table 1.

[2] = system: Pythium aphanidermatum; assay: Inhibition test of mycelial growth against Pythium aphanidermatum; type: cell-based; conditions: read-out: Inhibition Rate of Mycelial Growth against Pythium aphanidermatum
Protocol: [Worded in the source for another organism; this organism is reported under the same test.] as §1, with “growth. The inhibition rate of mycelial growth was obtained by measuring a diameter of mycelial colony in the same manner as Test Example 1.” for “growth.”, “2.” for “1.”

[3] = Folpet 0.1 ppm alone (Cyazofamid 0 ppm)
[4] = Folpet 1 ppm alone (Cyazofamid 0 ppm)
[5] = Folpet 10 ppm alone (Cyazofamid 0 ppm)
[6] = Folpet 100 ppm alone (Cyazofamid 0 ppm)
[7] = Cyazofamid 0.1 ppm alone (Folpet 0 ppm)
[8] = Cyazofamid 1 ppm alone (Folpet 0 ppm)
[9] = Cyazofamid 10 ppm alone (Folpet 0 ppm)
[10] = Cyazofamid 100 ppm alone (Folpet 0 ppm)

Compound | inhibition at 0.1 ppm [1, 3] [%] | inhibition at 1 ppm [1, 4] [%] | inhibition at 10 ppm [1, 5] [%] | inhibition at 100 ppm [1, 6] [%] | inhibition at 0.1 ppm [2, 3] [%] | inhibition at 1 ppm [2, 4] [%] | inhibition at 10 ppm [2, 5] [%] | inhibition at 100 ppm [2, 6] [%] | inhibition at 0.1 ppm [1, 7] [%] | inhibition at 1 ppm [1, 8] [%] | inhibition at 10 ppm [1, 9] [%] | inhibition at 100 ppm [1, 10] [%] | inhibition at 0.1 ppm [2, 7] [%] | inhibition at 1 ppm [2, 8] [%] | inhibition at 10 ppm [2, 9] [%] | inhibition at 100 ppm [2, 10] [%]
O=C1c2ccccc2C(=O)N1SC(Cl)(Cl)Cl [Folpet, N-(trichloromethanesulphenyl)phthalimide] | 3 | 3 | 45 | 90 | 2 | 0 | 62 | 80 | – | – | – | – | – | – | – | –
Cc1ccc(-c2c(Cl)nc(C#N)n2S(=O)(=O)N(C)C)cc1 [Cyazofamid, 4-chloro-2-cyano-1-dimethylsulfamoyl-5-(4-methylphenyl)imidazole] | – | – | – | – | – | – | – | – | 17 | 38 | 38 | 41 | 54 | 52 | 60 | 80
